# Source: US10131652B2, “Pyrimidinyloxy benzene derivatives as herbicides” (E. I. DU PONT DE NEMOURS AND COMPANY, priority 2014, dated 2018)
# What was measured:
# Format in all cases: in vivo
# [1] = tested on: Italian ryegrass (Lolium multiflorum); assay: Test B pre-/postemergence plant response
# In short: (§1)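 Steps: plant seeds in loam soil–sand mix; spray soil preemergence, and in parallel spray 2–10 cm one- to two-leaf plants postemergence; hold ~10 days in greenhouse; visually rate injury against untreated controls (0 = no effect, 100 = complete control).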
# [2] = tested on: ragweed (common ragweed, Ambrosia elatior); assay: Test B pre-/postemergence plant response
# In short: as §1
# kochia (Kochia scoparia) [3] = assay: Test B pre-/postemergence plant response
# In short: as §1
# [4] = tested on: palmer pigweed (Amaranthus palmeri); assay: Test F pre-/postemergence plant response; settings: scale 0 to 100
# In short: (§2)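 Visual control ratings were scored 0 (no effect) to 100 (complete control) versus untreated plants after 14–21 greenhouse days. Compounds, formulated in a surfactant-containing non-phytotoxic solvent, were applied both to silt loam at planting (preemergence) and to 1- to 4-leaf plants 2–18 cm tall (postemergence).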
# [5] = tested on: nightshade (eastern black nightshade, Solanum ptycanthum); assay: Test F pre-/postemergence plant response; settings: scale 0 to 100
# In short: as §2
# [6] = tested on: Italian ryegrass (Lolium multiflorum); assay: Test F pre-/postemergence plant response; settings: scale 0 to 100
# In short: as §2
# kochia (Kochia scoparia) [7] = assay: Test F pre-/postemergence plant response; settings: scale 0 to 100
# In short: as §2
# [8] = tested on: waterhemp_RES2 (ALS & HPPD resistant common waterhemp, Amaranthus rudis); assay: Test F postemergence plant response; settings: scale 0 to 100
# In short: (§3)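 Rated visually versus controls, 0 (no effect) to 100 (complete control), after 14–21 days in greenhouse. Compounds were sprayed postemergence on seedlings at 1- to 4-leaf stage, 2–18 cm tall.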
# [9] = tested on: waterhemp_RES1 (ALS & Triazine resistant common waterhemp, Amaranthus rudis); assay: Test F postemergence plant response; settings: scale 0 to 100
# In short: as §3
# wild oat (Avena fatua) = assay: Test D postemergence plant response
# In short: (§4)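 Visual 0–100 rating vs controls (0 = no effect, 100 = complete control), scored 13–15 d after postemergence spray. Plants 1- to 4-leaf stage (2–18 cm), potted in peat/vermiculite mix, kept in greenhouse.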
# kochia (Kochia scoparia) [10] = assay: Test D postemergence plant response; settings: for Kochia plant response rating: 31 g ai/ha, scale 0 to 100 (0 no effect, 100 complete control); for Plant response rating, Kochia: scale 0 to 100, 0 no effect, 100 complete control
# In short: as §4
# [11] = 31 g ai/ha, Preemergence, 0 to 100 scale where 0 is no effect and 100 is complete control
# [12] = 125 g ai/ha, postemergence, 0 to 100 scale, 0 no effect, 100 complete control
# [13] = Postemergence, 31 g ai/ha, 0 to 100 scale (0 no effect, 100 complete control)
# [14] = Preemergence, 125 g ai/ha, 0 to 100 scale (0 no effect, 100 complete control)
# [15] = 31 g ai/ha, scale 0 to 100 (0 no effect, 100 complete control)
# [16] = 62 g ai/ha, scale 0 to 100, 0 no effect, 100 complete control
# [17] = 125 g ai/ha, scale 0 to 100, 0 no effect, 100 complete control
# [18] = Postemergence, 500 g ai/ha, 0 to 100 scale (0 no effect, 100 complete control)
# [19] = Preemergence, 500 g ai/ha, 0 to 100 scale where 0 is no effect and 100 is complete control
smiles,measurement,setting,value
CC(F)(F)c1cc(-c2ccccc2Oc2ncc(Br)cn2)no1 [Compound 149],"Plant response rating, Ryegrass, Italian",[1]; [11],0
same,"Plant response rating, Ryegrass, Italian",[1]; [12],20
same,"Plant response rating, Ryegrass, Italian",[1]; [13],0
same,"Ryegrass, Italian plant response rating",[1]; [14],10
same,"Plant response rating, Ragweed",[2]; [11],0
same,"Plant response rating, Ragweed",[2]; [12],20
same,"Plant response rating, Ragweed",[2]; [13],10
same,Ragweed plant response rating,[2]; [14],0
same,"Plant response rating, Kochia",kochia (Kochia scoparia) [3]; [11],20
same,"Plant response rating, Kochia",kochia (Kochia scoparia) [3]; [12],100
same,"Plant response rating, Kochia",kochia (Kochia scoparia) [3]; [13],90
same,Kochia plant response rating,kochia (Kochia scoparia) [3]; [14],80
same,"Plant response rating, Pigweed, Palmer",[4]; 16 g ai/ha Postemergence,65
same,"Plant response rating, Pigweed, Palmer",[4]; 16 g ai/ha Preemergence,25
same,"Plant response rating, Pigweed, Palmer",[4]; 31 g ai/ha Postemergence,95
same,"Plant response rating, Pigweed, Palmer",[4]; 31 g ai/ha Preemergence,90
same,"Plant response rating, Pigweed, Palmer",[4]; 62 g ai/ha Postemergence,98
same,"Plant response rating, Pigweed, Palmer",[4]; 125 g ai/ha Postemergence,100
same,"Plant response rating, Pigweed, Palmer",[4]; 125 g ai/ha Preemergence,100
same,"Plant response rating, Pigweed, Palmer",[4]; Preemergence,100
same,"Plant response rating, Nightshade",[5]; 16 g ai/ha Preemergence,0
same,"Plant response rating, Nightshade",[5]; 31 g ai/ha Preemergence,80
same,"Plant response rating, Nightshade",[5]; 125 g ai/ha Preemergence,100
same,"Plant response rating, Nightshade",[5]; Preemergence,98
same,"Plant response rating, Ryegrass, Italian",[6]; 16 g ai/ha Postemergence,0
same,"Plant response rating, Ryegrass, Italian",[6]; 16 g ai/ha Preemergence,0
same,"Plant response rating, Ryegrass, Italian",[6]; 31 g ai/ha Postemergence,10
same,"Plant response rating, Ryegrass, Italian",[6]; 31 g ai/ha Preemergence,0
same,"Plant response rating, Ryegrass, Italian",[6]; 62 g ai/ha Postemergence,10
same,"Plant response rating, Ryegrass, Italian",[6]; 125 g ai/ha Postemergence,5
same,"Plant response rating, Ryegrass, Italian",[6]; 125 g ai/ha Preemergence,40
same,"Plant response rating, Ryegrass, Italian",[6]; Preemergence,20
same,"Plant response rating, Kochia",kochia (Kochia scoparia) [7]; 16 g ai/ha Postemergence,60
same,"Plant response rating, Kochia",kochia (Kochia scoparia) [7]; 16 g ai/ha Preemergence,0
same,"Plant response rating, Kochia",kochia (Kochia scoparia) [7]; 31 g ai/ha Postemergence,80
same,"Plant response rating, Kochia",kochia (Kochia scoparia) [7]; 31 g ai/ha Preemergence,0
same,"Plant response rating, Kochia",kochia (Kochia scoparia) [7]; 62 g ai/ha Postemergence,90
same,"Plant response rating, Kochia",kochia (Kochia scoparia) [7]; 125 g ai/ha Postemergence,95
same,"Plant response rating, Kochia",kochia (Kochia scoparia) [7]; 125 g ai/ha Preemergence,90
same,"Plant response rating, Kochia",kochia (Kochia scoparia) [7]; Preemergence,75
same,"Plant response rating, Waterhemp_RES2",[8]; 16 g ai/ha Postemergence,95
same,"Plant response rating, Waterhemp_RES2",[8]; 31 g ai/ha Postemergence,95
same,"Plant response rating, Waterhemp_RES2",[8]; 62 g ai/ha Postemergence,100
same,"Plant response rating, Waterhemp_RES2",[8]; 125 g ai/ha Postemergence,100
same,"Plant response rating, Waterhemp_RES1",[9]; 16 g ai/ha Postemergence,80
same,"Plant response rating, Waterhemp_RES1",[9]; 31 g ai/ha Postemergence,85
same,"Plant response rating, Waterhemp_RES1",[9]; 62 g ai/ha Postemergence,90
same,"Plant response rating, Waterhemp_RES1",[9]; 125 g ai/ha Postemergence,100
same,"Oat, Wild plant response rating",wild oat (Avena fatua); [15],0
same,"Plant response rating, Oat, Wild",wild oat (Avena fatua); [16],0
same,"Plant response rating, Oat, Wild",wild oat (Avena fatua); [17],5
same,Kochia plant response rating,kochia (Kochia scoparia) [10],90
same,"Plant response rating, Kochia",kochia (Kochia scoparia) [10]; 62 g ai/ha,100
same,"Plant response rating, Kochia",kochia (Kochia scoparia) [10]; 125 g ai/ha,100
FC(F)c1cc(-c2c(Cl)cccc2Oc2ncc(Cl)cn2)no1 [Compound 179],"Plant response rating, Ryegrass, Italian",[1]; [12],90
same,"Plant response rating, Ryegrass, Italian",[1]; [18],100
same,"Ryegrass, Italian plant response rating",[1]; [14],20
same,"Plant response rating, Ryegrass, Italian",[1]; [19],40
same,"Plant response rating, Ragweed",[2]; [12],10
same,"Plant response rating, Ragweed",[2]; [18],30
same,Ragweed plant response rating,[2]; [14],10
same,"Plant response rating, Ragweed",[2]; [19],40
same,"Plant response rating, Kochia",kochia (Kochia scoparia) [3]; [12],90
same,"Plant response rating, Kochia",kochia (Kochia scoparia) [3]; [18],100
same,Kochia plant response rating,kochia (Kochia scoparia) [3]; [14],100
same,"Plant response rating, Kochia",kochia (Kochia scoparia) [3]; [19],100
same,"Plant response rating, Pigweed, Palmer",[4]; 16 g ai/ha Postemergence,70
same,"Plant response rating, Pigweed, Palmer",[4]; 16 g ai/ha Preemergence,0
same,"Plant response rating, Pigweed, Palmer",[4]; 31 g ai/ha Postemergence,90
same,"Plant response rating, Pigweed, Palmer",[4]; 31 g ai/ha Preemergence,0
same,"Plant response rating, Pigweed, Palmer",[4]; 62 g ai/ha Postemergence,85
same,"Plant response rating, Pigweed, Palmer",[4]; 125 g ai/ha Postemergence,85
same,"Plant response rating, Pigweed, Palmer",[4]; 125 g ai/ha Preemergence,65
same,"Plant response rating, Pigweed, Palmer",[4]; Preemergence,35
same,"Plant response rating, Nightshade",[5]; 31 g ai/ha Preemergence,65
same,"Plant response rating, Nightshade",[5]; 125 g ai/ha Preemergence,100
same,"Plant response rating, Nightshade",[5]; Preemergence,100
same,"Plant response rating, Ryegrass, Italian",[6]; 16 g ai/ha Postemergence,0
same,"Plant response rating, Ryegrass, Italian",[6]; 16 g ai/ha Preemergence,0
same,"Plant response rating, Ryegrass, Italian",[6]; 31 g ai/ha Postemergence,0
same,"Plant response rating, Ryegrass, Italian",[6]; 31 g ai/ha Preemergence,0
same,"Plant response rating, Ryegrass, Italian",[6]; 62 g ai/ha Postemergence,0
same,"Plant response rating, Ryegrass, Italian",[6]; 125 g ai/ha Postemergence,0
same,"Plant response rating, Ryegrass, Italian",[6]; 125 g ai/ha Preemergence,10
same,"Plant response rating, Ryegrass, Italian",[6]; Preemergence,0
same,"Plant response rating, Kochia",kochia (Kochia scoparia) [7]; 16 g ai/ha Postemergence,65
same,"Plant response rating, Kochia",kochia (Kochia scoparia) [7]; 16 g ai/ha Preemergence,0
same,"Plant response rating, Kochia",kochia (Kochia scoparia) [7]; 31 g ai/ha Postemergence,75
same,"Plant response rating, Kochia",kochia (Kochia scoparia) [7]; 31 g ai/ha Preemergence,0
same,"Plant response rating, Kochia",kochia (Kochia scoparia) [7]; 62 g ai/ha Postemergence,90
same,"Plant response rating, Kochia",kochia (Kochia scoparia) [7]; 125 g ai/ha Postemergence,95
same,"Plant response rating, Kochia",kochia (Kochia scoparia) [7]; 125 g ai/ha Preemergence,98
same,"Plant response rating, Kochia",kochia (Kochia scoparia) [7]; Preemergence,70
same,"Plant response rating, Waterhemp_RES2",[8]; 16 g ai/ha Postemergence,95
same,"Plant response rating, Waterhemp_RES2",[8]; 31 g ai/ha Postemergence,100
same,"Plant response rating, Waterhemp_RES2",[8]; 62 g ai/ha Postemergence,100
same,"Plant response rating, Waterhemp_RES2",[8]; 125 g ai/ha Postemergence,100
same,"Plant response rating, Waterhemp_RES1",[9]; 16 g ai/ha Postemergence,90
same,"Plant response rating, Waterhemp_RES1",[9]; 31 g ai/ha Postemergence,90
same,"Plant response rating, Waterhemp_RES1",[9]; 62 g ai/ha Postemergence,100
same,"Plant response rating, Waterhemp_RES1",[9]; 125 g ai/ha Postemergence,100
same,"Plant response rating (scale 0 to 100), Oat, Wild",wild oat (Avena fatua); 16 g ai/ha,0
same,"Oat, Wild plant response rating",wild oat (Avena fatua); [15],5
same,"Oat, Wild plant response rating",wild oat (Avena fatua); [16],15
same,"Plant response rating, Oat, Wild",wild oat (Avena fatua); [17],20
same,"Plant response rating (scale 0 to 100), Kochia",kochia (Kochia scoparia) [10]; 16 g ai/ha,90
same,Kochia plant response rating,kochia (Kochia scoparia) [10],100
same,"Plant response rating, Kochia",kochia (Kochia scoparia) [10]; 62 g ai/ha,100
same,"Plant response rating, Kochia",kochia (Kochia scoparia) [10]; 125 g ai/ha,100
